The results in this text go back to PubChem BioAssay AID1199 (EPA DSSTox, 2008).

In the data set the test system is mouse carcinogenicity bioassay, TD50 from CPDB. Put plainly: DSSTox (CPDBAS) Carcinogenic Potency Database Summary Mouse Bioassay Results. The method in brief:
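Chronic long-term mouse cancer bioassays from literature and NCI/NTP, compiled per sex. TD50 is the standardized carcinogenic potency, using the most positive experiment per sex-species; target sites follow author opinion.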

The mark [1] stands for this setting: TD50_Mouse_Note: no positive results, TargetSites_Mouse_Female: no positive results.

The source made the active and inactive calls.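 Rule for the calls: active = a tumour-causing dose and a tumour site recorded for mice in at least one sex group; inconclusive = only government mouse studies exist and were judged inadequate; inactive = mouse studies exist but none gave tumours.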

Take `C[C@H](CCC(=O)O)[C@H]1CC[C@H]2[C@@H]3[C@H](O)C[C@@H]4C[C@H](O)CC[C@]4(C)[C@H]3CC[C@]12C`: under “TargetSites_Mouse_BothSexes: no positive results”, the outcome was inactive. `ClCCCl`: the Potency (TD50_Mouse_Note: TD50 is harmonic mean of more than one positive test, TargetSites_Mouse_Female: liver, lung, mammary gland, uterus) is 1.39 mmol/kg/day. Regarding `Nc1ccc(NC(=O)c2ccc(N)cc2)cc1`, under setting [1], the outcome was “inactive; no positive results”.

Regarding `OCC(CO)(CBr)CBr`, the Potency (TD50_Mouse_Note: TD50 is harmonic mean of more than one positive test, TargetSites_Mouse_Female: harderian gland, lung, subcutaneous tissue) was 0.523 mmol/kg/day. On to `Nc1cc([N+](=O)[O-])ccc1O`, for which the outcome under setting [1] was “inactive; no positive results”. On to `CCOC(N)=O`, for which the Potency (TD50_Mouse_Note: TD50 is harmonic mean of more than one positive test, greater than ten-fold variation among TD50 values for positive res, TargetSites_Mouse_Female: lung) was 0.19 mmol/kg/day. Turning to `C=CC=O`, under setting [1], the outcome was “inactive; no positive results”. In the case of `Cl/C=C/CCl`, the Potency reads like this: (TargetSites_Mouse_Female: lung, stomach, urinary bladder) 0.447 mmol/kg/day; (TargetSites_Mouse_Female: no positive results) 1.06 mmol/kg/day. For `Cc1cc(C)c(N)cc1C`, the Potency is, setting by setting: (TD50_Mouse_Note: TD50 is harmonic mean of more than one positive test, TargetSites_Mouse_Female: liver, lung) 0.265 mmol/kg/day; (TargetSites_Mouse_Female: liver) 0.0453 mmol/kg/day. Turning to `O=c1[nH]cc(F)c(=O)[nH]1`, the Potency (TD50_Mouse_Note: TD50 is harmonic mean of more than one positive test, TargetSites_Mouse_Female: hematopoietic system, lung) was 0.0228 mmol/kg/day. `O=[N+]([O-])c1cc([As](=O)(O)O)ccc1O`: the outcome under setting [1] is “inactive; no positive results”. The same measure, in the same setting: the entry for `ClCOCCCCCCOCCl` is “inactive”. As for `Cc1cc(Cl)ccc1N`, the Potency (TD50_Mouse_Note: TD50 is harmonic mean of more than one positive test, greater than ten-fold variation among TD50 values for positive res, TargetSites_Mouse_Female: vascular system) was 0.145 mmol/kg/day.
